# According to patent US20050282818A1, “Ubiquitin ligase inhibitors” (Rigel Pharmaceuticals, Inc., priority 2004, published 2005):
# pIC50: −log10 of the molar value.
# Experiments:
# [1] = tested on: ICAM-1 expression in A549 cells; test: ICAM assay (IL-1 induced ICAM-1/CD54 expression in A549 cells); type: cell-based, human; conditions: Homo sapiens, A549, ICAM assay
# Summary of the method: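 A549 cells, 10,000/well, preincubated with compound 1 h at 37° C, then stimulated with IL-1 (4 μl of 25 ng/ml added) for 4 h. Surface ICAM-1 detected by anti-CD54 plus anti-mouse IgG staining for 1 h, luminescent read-out after PBS washes.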
# APC11/APC2 = APC11/APC2 (Homo sapiens, UniProt Q9NYG5+Q9UJX6); test: APC-11/APC-2 ligase assay (APC auto ubiquitination); type: biochemical; conditions: APC assay
# Chain of APC11/APC2 (Q9NYG5 whole entry): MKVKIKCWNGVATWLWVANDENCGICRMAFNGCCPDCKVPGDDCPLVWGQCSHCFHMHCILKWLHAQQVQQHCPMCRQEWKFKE
# Chain of APC11/APC2 (Q9UJX6 whole entry): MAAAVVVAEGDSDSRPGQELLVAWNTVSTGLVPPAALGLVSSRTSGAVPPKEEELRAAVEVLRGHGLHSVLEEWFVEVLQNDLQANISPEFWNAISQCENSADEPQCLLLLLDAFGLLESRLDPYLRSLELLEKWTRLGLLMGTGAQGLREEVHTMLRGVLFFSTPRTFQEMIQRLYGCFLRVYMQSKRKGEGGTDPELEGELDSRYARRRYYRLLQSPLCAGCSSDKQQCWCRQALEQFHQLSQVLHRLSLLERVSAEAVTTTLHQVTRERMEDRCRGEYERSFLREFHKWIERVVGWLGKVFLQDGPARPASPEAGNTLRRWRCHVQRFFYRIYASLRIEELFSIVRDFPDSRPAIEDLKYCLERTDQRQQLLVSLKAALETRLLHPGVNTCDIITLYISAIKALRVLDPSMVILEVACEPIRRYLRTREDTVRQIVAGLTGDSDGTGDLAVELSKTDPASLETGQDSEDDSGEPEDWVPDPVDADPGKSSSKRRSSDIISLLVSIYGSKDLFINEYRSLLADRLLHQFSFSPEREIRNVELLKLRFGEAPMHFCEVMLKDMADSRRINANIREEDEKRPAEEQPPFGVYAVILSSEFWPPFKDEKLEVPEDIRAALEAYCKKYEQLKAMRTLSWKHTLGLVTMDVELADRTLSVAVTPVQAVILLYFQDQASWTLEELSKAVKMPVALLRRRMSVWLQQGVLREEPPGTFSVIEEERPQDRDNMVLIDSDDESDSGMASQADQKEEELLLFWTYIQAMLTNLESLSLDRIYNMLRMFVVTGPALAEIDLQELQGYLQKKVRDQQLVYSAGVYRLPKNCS
# Summary of the method: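 His-tagged APC was captured on nickel plates with human E1 (5 ng/well), UbcH5c (20 ng/well), APC (100 ng/well) and Flag-ubiquitin (100 ng/well) in a Tris pH 7.6 reaction buffer containing 2.5 mM ATP, for 1 hour at room temperature. Read-out was anti-Flag/HRP chemiluminescence. IC50 was set against a DMSO control, typically from 6 or 8 concentrations.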
# TRAF6/Uev1A/Ubc13 = biological target: T1, TRAF6/Uev1A/Ubc13 (Homo sapiens, UniProt Q9Y4K3); test: TRAF6/Uev1A/Ubc13 plate-based ubiquitin ligase assay; type: biochemical
# T1 sequence (Q9Y4K3 1-522): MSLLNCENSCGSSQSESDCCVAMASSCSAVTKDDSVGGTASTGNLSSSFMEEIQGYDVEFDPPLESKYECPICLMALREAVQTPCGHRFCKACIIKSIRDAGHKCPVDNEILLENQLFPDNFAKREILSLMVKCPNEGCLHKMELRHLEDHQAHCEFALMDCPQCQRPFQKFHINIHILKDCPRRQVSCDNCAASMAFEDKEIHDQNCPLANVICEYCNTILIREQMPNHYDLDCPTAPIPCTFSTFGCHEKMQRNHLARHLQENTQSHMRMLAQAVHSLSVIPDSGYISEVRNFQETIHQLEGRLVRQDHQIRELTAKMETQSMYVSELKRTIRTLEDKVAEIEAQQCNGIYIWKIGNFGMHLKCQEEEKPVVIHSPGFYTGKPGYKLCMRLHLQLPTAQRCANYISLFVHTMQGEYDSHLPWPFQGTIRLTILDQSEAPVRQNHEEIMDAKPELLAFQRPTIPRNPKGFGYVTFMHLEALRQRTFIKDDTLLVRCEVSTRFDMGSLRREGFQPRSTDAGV
# Summary of the method: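 Ligase activity was read as luminescence from anti-Flag/HRP detection of Flag-ubiquitin bound to casein-blocked Ni-plates alongside His-ubiquitin after a 1 h room-temperature reaction. Buffer: 62.5 mM Tris pH 7.5, 6.25 mM MgCl2, 1.0 mM DTT, 2 μM ATP; E1, Uev1a/Ubc13 and TRAF6 added last to start. IC50s derived across compound concentrations.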
Compound,pIC50 [1],pIC50 (APC11/APC2),pIC50 (TRAF6/Uev1A/Ubc13)
"FC(F)(F)c1cc(-c2ccc3c(c2)OCO3)c2nonc2c1 [compound 475, 4-(benzodioxol-5-yl)-6-(trifluoromethyl)-2,1,3-benzoxadiazole]",≤ 4.70,≤ 4.70,≤ 4.70
"Nc1ccc(N2CCOCC2)c2nonc12 [compound 375, 7-(morpholin-4-yl)-2,1,3-benzoxadiazol-4-amine]",≤ 4.70,≤ 4.70,≤ 4.70
"Clc1cc(Sc2cccc3cccnc23)cc2nonc12 [compound 336, 8-[(4-chloro-2,1,3-benzoxadiazol-6-yl)thio]quinoline]",≤ 4.70,≤ 4.70,≤ 4.70
"Fc1cc2nonc2c(N2CCOCC2)c1F [compound 405, 5,6-difluoro-4-(morpholin-4-yl)-2,1,3-benzoxadiazole]",≤ 4.70,≤ 4.70,≤ 4.70
"COC(=O)c1ccc(NS(=O)(=O)c2ccc(Sc3ccc(O)cc3)c3nonc23)cc1 [compound 335, methyl 4-{[(7-{[4-hydroxyphenyl]thio}-2,1,3-benzoxadiazol-4-yl)sulfonyl]amino}benzoate]",≤ 4.70,≤ 4.70,≤ 4.70
"COc1ccc(-c2cc3nsnc3cc2F)cc1OC [compound 463, 5-(3,4-dimethoxyphenyl)-6-fluoro-2,1,3-benzthiadiazole]",≤ 4.70,≤ 4.70,≤ 4.70
Nc1cccc2c(NS(=O)(=O)c3ccc(N4CCOCC4)c4nonc34)cccc12 [compound 389],≤ 4.70,≤ 4.70,≤ 4.70
"O=S(=O)(Nc1ccc(F)cc1F)c1ccc(Cl)c2nonc12 [compound 364, 7-chloro-N-(2,4-difluorophenyl)-2,1,3-benzoxadiazole-4-sulfonamide]",≤ 4.70,≤ 4.70,≤ 4.70
"O=S(=O)(Nc1cc(Cl)ccc1Cl)c1ccc(Cl)c2nonc12 [compound 365, 7-chloro-N-(2,5-dichlorophenyl)-2,1,3-benzoxadiazole-4-sulfonamide]",≤ 4.70,≤ 4.70,≤ 4.70
"CC(C)(C)c1ccc(-c2cc(-c3ccc(C(C)(C)C)cc3)c3nonc3c2)cc1 [compound 422, 4,6-bis(4-t-butylphenyl)-2,1,3-benzoxadiazole]",≤ 4.70,≤ 4.70,≤ 4.70
"COc1cccc(-c2cc(N3CCCCC3)c([N+](=O)[O-])c3nonc23)c1 [compound 434, 7-(3-methoxyphenyl)-4-nitro-5-(piperidin-1-yl)-2,1,3-benzoxadiazole]",≤ 4.70,≤ 4.70,≤ 4.70
"O=S(=O)(Nc1cccc(F)c1F)c1ccc(Sc2cccc3cccnc23)c2nonc12 [compound 376, N-(2,3-difluorophenyl)-7-(quinolin-8-ylthio)-2,1,3-benzoxadiazole-4-sulfonamide]",≤ 4.70,4.70 to 6.00,≤ 4.70
"O=[N+]([O-])c1ccc(Nc2ccccc2F)c2nonc12 [compound 401, N-(2-fluorophenyl)-7-nitro-2,1,3-benzoxadiazol-4-amine]",≤ 4.70,≤ 4.70,≤ 4.70
"Cc1ccc(C)c(-c2cc([N+](=O)[O-])cc3nonc23)c1 [compound 484, 4-(2,5-dimethylphenyl)-6-nitro-2,1,3-benzoxadiazole]",≤ 4.70,≤ 4.70,≤ 4.70
"O=[N+]([O-])c1cc(-c2cc(F)cc(F)c2)c2nonc2c1 [compound 479, 4-(3,5-difluorophenyl)-6-nitro-2,1,3-benzoxadiazole]",≤ 4.70,≤ 4.70,≤ 4.70
"COC(=O)c1ccc(Cl)cc1NS(=O)(=O)c1ccc(Cl)c2nonc12 [compound 360, methyl 4-chloro-2-{[(7-chloro-2,1,3-benzoxadiazol-4-yl)sulfonyl]amino}benzoate]",4.70 to 6.00,≤ 4.70,≤ 4.70
"O=S(=O)(Nc1cccc2ccc(O)cc12)c1ccc(N2CCOCC2)c2nonc12 [compound 385, N-(7-hydroxynaphthalen-1-yl)-7-(morpholin-4-yl)-2,1,3-benzoxadiazole-4-sulfonamide]",≤ 4.70,≤ 4.70,≤ 4.70
"O=S(=O)(NCc1ccncc1)c1ccc(Cl)c2nonc12 [compound 455, 7-chloro-N-(pyridin-4-ylmethyl)-2,1,3-benzoxadiazole-4-sulfonamide]",4.70 to 6.00,≤ 4.70,≤ 4.70

# Continued, values first:
pIC50 [1],pIC50 (APC11/APC2),pIC50 (TRAF6/Uev1A/Ubc13),Compound
4.70 to 6.00,4.70 to 6.00,4.70 to 6.00,"CC(C)(C)c1ccc(-c2cc([N+](=O)[O-])cc3nonc23)cc1 [compound 481, 4-(4-t-butylphenyl)-6-nitro-2,1,3-benzoxadiazole]"
4.70 to 6.00,≤ 4.70,≤ 4.70,"O=C(Nc1ccc([N+](=O)[O-])c2nonc12)c1cccc(F)c1F [compound 427, 2,3-difluoro-N-(7-nitro-2,1,3-benzoxadiazol-4-yl)benzamide]"
4.70 to 6.00,≤ 4.70,≤ 4.70,"Cc1ccccc1-c1ccc([N+](=O)[O-])c2nonc12 [compound 439, 4-nitro-7-o-tolyl-2,1,3-benzoxadiazole]"
4.70 to 6.00,≤ 4.70,4.70 to 6.00,"O=S(=O)(c1c(Cl)cc(Cl)c2nonc12)N1CCOCC1 [compound 411, 5,7-dichloro-4-{(morpholin-4-yl)sulfonyl}-2,1,3-benzoxadiazole]"
4.70 to 6.00,4.70 to 6.00,4.70 to 6.00,"O=[N+]([O-])c1cccc(-c2ccc([N+](=O)[O-])c3nonc23)c1 [compound 444, 4-nitro-7-(3-nitrophenyl)-2,1,3-benzoxadiazole]"
4.70 to 6.00,≤ 4.70,≤ 4.70,"O=S(=O)(Nc1ncccc1OCc1ccccc1)c1ccc(Cl)c2nonc12 [compound 380, N-(3-benzyloxypyridin-2-yl)-7-chloro-2,1,3-benzoxadiazole-4-sulfonamide]"
4.70 to 6.00,4.70 to 6.00,4.70 to 6.00,"CC(=O)c1cccc(-c2ccc([N+](=O)[O-])c3nonc23)c1 [compound 443, 1-(3-[7-nitro-2,1,3-benzoxadiazol-4-yl]phenyl)ethanone]"
4.70 to 6.00,≤ 4.70,≤ 4.70,"COc1cc(Cl)c(C)cc1NS(=O)(=O)c1ccc(Cl)c2nonc12 [compound 362, 7-chloro-N-(4-chloro-2-methoxy-5-methylphenyl)-2,1,3-benzoxadiazole-4-sulfonamide]"
4.70 to 6.00,≤ 4.70,≤ 4.70,"O=S(=O)(Nc1ccc2[nH]ccc2c1)c1ccc(Cl)c2nonc12 [compound 363, 7-chloro-N-(1H-indol-5-yl)-2,1,3-benzoxadiazole-4-sulfonamide]"
